The source of these data is patent US12673975B2, “Cyclic peptide, cell scaffold material, cell separating material, and medium” (FUJIFILM Corporation, priority 2019, dated 2026).

SMILES strings stand for the structures. Read-outs that look alike come from different tables or passages of the source. Starred links: 1 amine or outer side, 2 acyl side, 3 side chain; linkers in the order of their positions; H or OH if unused. Positions of bridges follow the written chain, without caps; N, C: chain ends. Non-standard residues stand in square brackets, D forms with d. Residues, ends and D or L forms follow the SMILES beside them. Pen = CC(C)(S)[C@H](N)C(=O)O; hCys = N[C@@H](CCS)C(=O)O; Dab = NCC[C@H](N)C(=O)O; Dap = NC[C@H](N)C(=O)O; X1 = O=C(C[*:2])[*:1]; X2 = O=C(C[*:1])[*:2]

Data set [1] in a line: Evaluation of molecule stability (alkali treatment, residual rate by LC/MS). The data set is classed as physicochemical. The note with it: for Performance evaluation: Stability (residual rate of cyclic peptide after alkali treatment): 500 μM peptide aqueous solution plus equivalent of 1 M sodium hydroxide, 15° C., 3 hours, LC/MS peak area; for Stability (molecule stability, residual rate of the cyclic peptide rank): alkali treatment, residual rate by LC/MS. In a few lines: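 500 μM aqueous cyclic peptide mixed with an equal volume of 1 M NaOH and held 3 h at 15 °C. Residual rate is total LC/MS peak area after treatment relative to untreated (100%), using a C18 column, pH 3 ammonium formate/acetonitrile gradient, 45 °C, ESI±.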

In data set [2] the target is human integrin αvβ5 (Homo sapiens, UniProt P06756+P18084). As to the kind of experiment: Evaluation of integrin binding property (surface plasmon resonance, Biacore 3000, immobilized cyclic peptide). In a few lines: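 SPR with cyclic peptide amine-coupled via EDC/NHS to a CM5 chip, blank channel as reference. Integrin αvβ5 at 30, 100, 300 and 1,000 nM injected 10 min at 25 °C in HEPES buffer pH 7.4 with 5 mM MgCl2, 30 min buffer flow, EDTA regeneration; Kd from reference-subtracted signals, graded by category.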
(In general: In SPR one partner is held on a chip, and binding of the other changes the refractive index at the surface.)

[3] abbreviates: SPR, 25° C., HEPES buffer with 5 mM magnesium chloride, integrin 30-1,000 nM, read-out: Performance evaluation: Binding activity (dissociation constant between the cyclic peptide and human integrin αvβ5).
The mark [4] stands for this setting: surface plasmon resonance, immobilized cyclic peptide, human integrin αvβ5, read-out: Binding activity (integrin binding property, dissociation constant rank).

Chain of human integrin αvβ5 (P06756 31-1048): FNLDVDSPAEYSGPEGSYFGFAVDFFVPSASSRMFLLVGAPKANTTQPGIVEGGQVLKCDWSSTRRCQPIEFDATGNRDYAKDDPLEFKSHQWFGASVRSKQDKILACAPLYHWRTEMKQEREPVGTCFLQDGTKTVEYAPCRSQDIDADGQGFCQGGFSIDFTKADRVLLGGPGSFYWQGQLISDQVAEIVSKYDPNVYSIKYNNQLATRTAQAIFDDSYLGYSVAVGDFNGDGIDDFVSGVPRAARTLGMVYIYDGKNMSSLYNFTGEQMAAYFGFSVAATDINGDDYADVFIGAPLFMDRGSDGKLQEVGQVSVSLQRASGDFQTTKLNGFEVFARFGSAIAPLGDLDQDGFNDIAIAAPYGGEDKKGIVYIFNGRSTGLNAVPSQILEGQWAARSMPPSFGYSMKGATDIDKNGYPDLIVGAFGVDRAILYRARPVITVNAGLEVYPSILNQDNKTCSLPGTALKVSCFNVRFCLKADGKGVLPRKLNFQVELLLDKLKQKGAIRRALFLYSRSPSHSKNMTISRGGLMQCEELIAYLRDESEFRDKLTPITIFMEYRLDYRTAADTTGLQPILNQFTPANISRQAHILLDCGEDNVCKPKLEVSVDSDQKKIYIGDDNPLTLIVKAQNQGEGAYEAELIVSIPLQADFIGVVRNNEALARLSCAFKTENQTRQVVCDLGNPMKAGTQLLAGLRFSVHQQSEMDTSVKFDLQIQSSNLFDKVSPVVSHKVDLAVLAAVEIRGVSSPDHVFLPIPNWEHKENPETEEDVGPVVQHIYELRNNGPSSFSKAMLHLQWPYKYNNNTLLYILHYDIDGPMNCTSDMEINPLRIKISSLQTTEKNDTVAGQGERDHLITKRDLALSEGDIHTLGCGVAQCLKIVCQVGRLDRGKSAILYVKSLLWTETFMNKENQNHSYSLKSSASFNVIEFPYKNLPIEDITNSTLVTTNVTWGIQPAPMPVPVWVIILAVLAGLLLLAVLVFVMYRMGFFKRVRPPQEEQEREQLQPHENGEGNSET
Chain of human integrin αvβ5 (P18084 24-799): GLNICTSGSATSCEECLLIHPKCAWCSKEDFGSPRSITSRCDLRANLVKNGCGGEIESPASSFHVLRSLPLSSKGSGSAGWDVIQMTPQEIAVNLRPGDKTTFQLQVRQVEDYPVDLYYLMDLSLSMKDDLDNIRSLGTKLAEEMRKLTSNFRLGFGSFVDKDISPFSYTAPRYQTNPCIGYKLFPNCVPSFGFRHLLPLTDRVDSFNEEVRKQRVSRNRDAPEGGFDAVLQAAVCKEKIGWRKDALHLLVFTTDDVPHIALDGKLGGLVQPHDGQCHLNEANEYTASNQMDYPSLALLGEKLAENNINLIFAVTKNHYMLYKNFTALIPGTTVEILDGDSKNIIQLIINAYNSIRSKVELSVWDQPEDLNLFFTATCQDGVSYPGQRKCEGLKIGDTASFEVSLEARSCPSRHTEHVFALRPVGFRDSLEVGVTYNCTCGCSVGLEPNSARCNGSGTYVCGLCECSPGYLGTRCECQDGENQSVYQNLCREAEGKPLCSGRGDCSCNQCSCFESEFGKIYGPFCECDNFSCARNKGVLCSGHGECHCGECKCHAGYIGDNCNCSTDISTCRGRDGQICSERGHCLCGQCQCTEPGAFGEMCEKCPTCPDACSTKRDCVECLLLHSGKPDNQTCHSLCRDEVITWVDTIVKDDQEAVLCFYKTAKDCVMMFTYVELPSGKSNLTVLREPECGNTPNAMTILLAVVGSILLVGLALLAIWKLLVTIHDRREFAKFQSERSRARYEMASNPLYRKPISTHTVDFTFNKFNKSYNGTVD

Consider `C[C@H](NC(=O)[C@H](CCCCN)NC(=O)[C@H](CCCCN)NC(=O)[C@@H](N)CCCCN)C(=O)N[C@H]1CNC(=O)CSCC[C@@H](C(=O)O)NC(=O)[C@H](CCCNC(=N)N)NC(=O)[C@H](Cc2ccc(O)cc2)NC(=O)[C@H](CC(N)=O)NC(=O)[C@H](CC(=O)O)NC(=O)CNC(=O)[C@H](CCCNC(=N)N)NC(=O)[C@@H]2CCCN2C(=O)[C@H](CCC(=O)O)NC1=O` [Cyclic peptide 47, KKKA(Dap(acetyl))EPRGDNYR-(Hcy)] (H-KKKA[Dap]EPRGDNYR[hCys]-OH; linker 5-14 via X1), for which the “Performance evaluation: Stability (residual rate of cyclic peptide after alkali treatment)” value in data set [1] was “B (The residual rate of the cyclic peptide is 50% or more and less than 70%.)”. For the same molecule, in data set [2] (setting [3]), the Kd was in the range of 50 to 100 nM.

Turning to `CC(C)[C@@H]1NC(=O)[C@@H](NC(=O)[C@H](CCCCN)NC(=O)[C@H](CCCCN)NC(=O)[C@@H](N)CCCCN)CCSCC(=O)NCC[C@@H](C(=O)N[C@@H](C)C(=O)O)NC(=O)[C@H](C)NC(=O)[C@H](Cc2ccccc2)NC(=O)[C@H]([C@@H](C)O)NC(=O)[C@H](CC(=O)O)NC(=O)CNC(=O)[C@H](CCCNC(=N)N)NC(=O)[C@@H]2CCCN2C1=O` [Cyclic peptide 165, KKK-(Hcy)-VPRGDTFA(Dab(acetyl))A] (H-KKK[hCys]VPRGDTFA[Dab]A-OH; linker 4-13 via X2), the “Stability (molecule stability, residual rate of the cyclic peptide rank)” value in data set [1] is “A (The residual rate of the cyclic peptide is 70% or more.)”. For the same molecule, in data set [2] (setting [4]), the Kd is less than 50 nM.

Turning to `C[C@@H]1NC(=O)[C@H](Cc2ccccc2)NC(=O)[C@H](CO)NC(=O)[C@H](CC(=O)O)NC(=O)CNC(=O)[C@H](CCCNC(=N)N)NC(=O)[C@@H]2CCCN2C(=O)[C@H]([C@@H](C)O)NC(=O)[C@@H](NC(=O)[C@H](CCCCN)NC(=O)[C@H](CCCCN)NC(=O)[C@@H](N)CCCCN)CCSCC(=O)NCC[C@@H](C(=O)O)NC1=O` [Cyclic peptide 156, KKK-(Hcy)-TPRGDSFA(Dab(acetyl))] (H-KKK[hCys]TPRGDSFA[Dab]-OH; linker 4-13 via X2), the “Stability (molecule stability, residual rate of the cyclic peptide rank)” value in data set [1] was “A (The residual rate of the cyclic peptide is 70% or more.)”. The Kd in data set [2] (setting [4]) fell in the range of 50 to 100 nM.

Regarding `C[C@H](NC(=O)[C@H](CCCCN)NC(=O)[C@H](CCCCN)NC(=O)[C@@H](N)CCCCN)C(=O)N[C@H]1CCSCC(=O)NCC[C@@H](C(=O)N[C@@H](CCC(=O)O)C(=O)O)NC(=O)[C@H](CCCNC(=N)N)NC(=O)[C@H](Cc2ccc(O)cc2)NC(=O)[C@H](CC(N)=O)NC(=O)[C@H](CC(=O)O)NC(=O)CNC(=O)[C@H](CCCNC(=N)N)NC(=O)[C@@H]2CCCN2C(=O)[C@H](CCC(=O)O)NC1=O` [Cyclic peptide 43, KKKA-(Hcy)-EPRGDNYR(Dab(acetyl))E] (H-KKKA[hCys]EPRGDNYR[Dab]E-OH; linker 5-14 via X2), the “Performance evaluation: Stability (residual rate of cyclic peptide after alkali treatment)” value in data set [1] is on record as “A (The residual rate of the cyclic peptide is 70% or more.)”. In addition, the Kd in data set [2] (setting [3]) lay within 50 to 100 nM.

Take `CC[C@H](C)[C@@H]1NC(=O)[C@@H](NC(=O)[C@H](CCCCN)NC(=O)[C@H](CCCCN)NC(=O)[C@@H](N)CCCCN)CCSCC(=O)NCC[C@@H](C(=O)N[C@@H](C)C(=O)O)NC(=O)[C@H](Cc2ccccc2)NC(=O)[C@H]([C@@H](C)O)NC(=O)[C@H](CC(=O)O)NC(=O)CNC(=O)[C@H](CCCNC(=N)N)NC(=O)[C@@H]2CCCN2C1=O` [Cyclic peptide 60, KKK-(Hcy)-IPRGDTF(Dab(acetyl))A] (H-KKK[hCys]IPRGDTF[Dab]A-OH; linker 4-12 via X2): the “Performance evaluation: Stability (residual rate of cyclic peptide after alkali treatment)” value in data set [1] is reported as “A (The residual rate of the cyclic peptide is 70% or more.)”. For the same molecule, the Kd in data set [2] (setting [3]) is less than 50 nM.

In the case of `CC(C)[C@@H]1NC(=O)[C@@H](NC(=O)CNC(=O)[C@H](CCCCN)NC(=O)[C@H](CCCCN)NC(=O)[C@@H](N)CCCCN)CCSCC(=O)NCC[C@@H](C(=O)N[C@@H](C)C(=O)O)NC(=O)[C@H](CCCNC(=N)N)NC(=O)[C@H](Cc2ccccc2)NC(=O)[C@H]([C@@H](C)O)NC(=O)[C@H](CC(=O)O)NC(=O)CNC(=O)[C@H](CCCNC(=N)N)NC(=O)[C@@H]2CCCN2C1=O` [Cyclic peptide 70, KKKG-(Hcy)-VPRGDTFR(Dab(acetyl))A] (H-KKKG[hCys]VPRGDTFR[Dab]A-OH; linker 5-14 via X2), the “Performance evaluation: Stability (residual rate of cyclic peptide after alkali treatment)” value in data set [1] was “A (The residual rate of the cyclic peptide is 70% or more.)”. The Kd in data set [2] (setting [3]) was less than 50 nM.

On to `CC(C)[C@@H]1NC(=O)[C@@H](NC(=O)[C@H](C)NC(=O)[C@H](CCCCN)NC(=O)[C@H](CCCCN)NC(=O)[C@H](CCCCN)NC(=O)[C@@H](N)CCCCN)CCSCC(=O)NCC[C@@H](C(=O)N[C@@H](C)C(=O)O)NC(=O)[C@H](C)NC(=O)[C@H](Cc2ccccc2)NC(=O)[C@H]([C@@H](C)O)NC(=O)[C@H](CC(=O)O)NC(=O)CNC(=O)[C@H](CCCNC(=N)N)NC(=O)[C@@H]2CCCN2C1=O` [Cyclic peptide 110, KKKKA-(Hcy)-VPRGDTFA(Dab(acetyl))A] (H-KKKKA[hCys]VPRGDTFA[Dab]A-OH; linker 6-15 via X2), for which, in data set [1], the “Stability (molecule stability, residual rate of the cyclic peptide rank)” value is recorded as “A (The residual rate of the cyclic peptide is 70% or more.)”. In data set [2] (setting [4]), the Kd was less than 50 nM.

Regarding `C[C@H](NC(=O)[C@H](CCCCN)NC(=O)[C@H](CCCCN)NC(=O)[C@@H](N)CCCCN)C(=O)N[C@H]1CCSCC(=O)NCC[C@@H](C(=O)N[C@@H](CC(=O)O)C(=O)O)NC(=O)[C@H](CCCNC(=N)N)NC(=O)[C@H](Cc2ccccc2)NC(=O)[C@H](CC(N)=O)NC(=O)[C@H](CC(=O)O)NC(=O)CNC(=O)[C@H](CCCNC(=N)N)NC(=O)[C@@H]2CCCN2C(=O)[C@H](CCC(=O)O)NC1=O` [Cyclic peptide 34, KKKA-(Hcy)-EPRGDNFR(Dab(acetyl))D] (H-KKKA[hCys]EPRGDNFR[Dab]D-OH; linker 5-14 via X2), in data set [1], the “Performance evaluation: Stability (residual rate of cyclic peptide after alkali treatment)” value was “A (The residual rate of the cyclic peptide is 70% or more.)”. Moreover, the Kd in data set [2] (setting [3]) is less than 50 nM.

Turning to `CC[C@H](C)[C@@H]1NC(=O)[C@@H](NC(=O)CNC(=O)[C@H](CCCCN)NC(=O)[C@H](CCCCN)NC(=O)[C@@H](N)CCCCN)CCCCNC(=O)CSC(C)(C)[C@@H](C(=O)N[C@@H](C)C(=O)O)NC(=O)[C@H](CCCNC(=N)N)NC(=O)[C@H](Cc2ccccc2)NC(=O)[C@H]([C@@H](C)O)NC(=O)[C@H](CC(=O)O)NC(=O)CNC(=O)[C@H](CCCNC(=N)N)NC(=O)[C@@H]2CCCN2C1=O` [Cyclic peptide 135, KKKG(Lys(acetyl))IPRGDTFR-(Pen)-A] (H-KKKGKIPRGDTFR[Pen]A-OH; linker 5-14 via X1), the “Stability (molecule stability, residual rate of the cyclic peptide rank)” value in data set [1] is listed as “A (The residual rate of the cyclic peptide is 70% or more.)”. The Kd in data set [2] (setting [4]) is 50 to 100 nM.

With `CC[C@H](C)[C@@H]1NC(=O)[C@@H](NC(=O)[C@H](C)NC(=O)[C@H](CCCCN)NC(=O)[C@H](CCCCN)NC(=O)[C@@H](N)CCCCN)CCSCC(=O)NCC[C@@H](C(=O)N[C@@H](CC(=O)O)C(=O)O)NC(=O)[C@H](CCCNC(=N)N)NC(=O)[C@H](Cc2ccc(O)cc2)NC(=O)[C@H](CC(N)=O)NC(=O)[C@H](CC(=O)O)NC(=O)CNC(=O)[C@H](CCCNC(=N)N)NC(=O)[C@@H]2CCCN2C1=O` [Cyclic peptide 30, KKKA-(Hcy)-IPRGDNYR(Dab(acetyl))D] (H-KKKA[hCys]IPRGDNYR[Dab]D-OH; linker 5-14 via X2), the “Performance evaluation: Stability (residual rate of cyclic peptide after alkali treatment)” value in data set [1] was “A (The residual rate of the cyclic peptide is 70% or more.)”. In addition, the Kd in data set [2] (setting [3]) is less than 50 nM.

In the case of `CC[C@H](C)[C@@H]1NC(=O)[C@@H](NC(=O)CNC(=O)[C@H](CCCCN)NC(=O)[C@H](CCCCN)NC(=O)[C@@H](N)CCCCN)CCSCC(=O)NCC[C@@H](C(=O)NCC(=O)O)NC(=O)[C@H](C)NC(=O)[C@H](Cc2ccccc2)NC(=O)[C@H]([C@@H](C)O)NC(=O)[C@H](CC(=O)O)NC(=O)CNC(=O)[C@H](CCCNC(=N)N)NC(=O)[C@@H]2CCCN2C1=O` [Cyclic peptide 84, KKKG-(Hcy)-IPRGDTFA(Dab(acetyl))G] (H-KKKG[hCys]IPRGDTFA[Dab]G-OH; linker 5-14 via X2), the “Performance evaluation: Stability (residual rate of cyclic peptide after alkali treatment)” value in data set [1] is reported as “A (The residual rate of the cyclic peptide is 70% or more.)”. In data set [2] (setting [3]), the Kd is less than 50 nM.

Take `C[C@H](NC(=O)[C@H](CCCCN)NC(=O)[C@H](CCCCN)NC(=O)[C@@H](N)CCCCN)C(=O)N[C@H]1CCSCC(=O)NCC[C@@H](C(=O)N[C@@H](CC(=O)O)C(=O)O)NC(=O)[C@H](CCCNC(=N)N)NC(=O)[C@H](Cc2ccc(O)cc2)NC(=O)[C@H](CC(N)=O)NC(=O)[C@H](CC(=O)O)NC(=O)CNC(=O)[C@H](CCCNC(=N)N)NC(=O)[C@@H]2CCCN2C(=O)[C@H](CCC(=O)O)NC1=O` [Cyclic peptide 42, KKKA-(Hcy)-EPRGDNYR(Dab(acetyl))D] (H-KKKA[hCys]EPRGDNYR[Dab]D-OH; linker 5-14 via X2): in data set [1], the “Performance evaluation: Stability (residual rate of cyclic peptide after alkali treatment)” value was “A (The residual rate of the cyclic peptide is 70% or more.)”. In data set [2] (setting [3]), the Kd was in the range of 50 to 100 nM.

Regarding `C[C@H](NC(=O)[C@@H]1CCNC(=O)CSCC[C@H](NC(=O)[C@H](C)NC(=O)[C@H](CCCCN)NC(=O)[C@H](CCCCN)NC(=O)[C@@H](N)CCCCN)C(=O)N[C@@H](CCC(=O)O)C(=O)N2CCC[C@H]2C(=O)N[C@@H](CCCNC(=N)N)C(=O)NCC(=O)N[C@@H](CC(=O)O)C(=O)N[C@@H](CC(N)=O)C(=O)N[C@@H](Cc2ccc(O)cc2)C(=O)N[C@@H](CCCNC(=N)N)C(=O)N1)C(=O)O` [Cyclic peptide 41, KKKA-(Hcy)-EPRGDNYR(Dab(acetyl))A] (H-KKKA[hCys]EPRGDNYR[Dab]A-OH; linker 5-14 via X2), the “Performance evaluation: Stability (residual rate of cyclic peptide after alkali treatment)” value in data set [1] is “A (The residual rate of the cyclic peptide is 70% or more.)”. Further, the Kd in data set [2] (setting [3]) was in the range of 50 to 100 nM.
